This passage reports Activity results from ChEMBL document CHEMBL1143132, “Synthesis and protective effects of coumarin derivatives against oxidative stress induced by doxorubicin” (2008).

Calls of active or inactive are those of the source. The rule behind the calls is not given here.

Test [1] has as its system MCF7. The test is described as follows: Antioxidant activity in human MCF7 cells assessed as reduction of H2O2 production at 100 uM. Format: functional, cell-based.
Test [2] concerns MCF7. The test is described as follows: Cytotoxicity against human MCF7 cells at 100 uM. Format: functional.
Test [3] relates to MCF7. Nature of the test: Protective effect against doxorubicin-induced oxidative stress in human MCF7 cells assessed as reduction of ROS level at 25 uM. Format: functional, cell-based.

Regarding `CCCCCCCCCCCCSCc1cc(=O)oc2c(OC(C)=O)c(OC(C)=O)ccc12`, in the test on MCF7 [1], the result was Active. Moreover, the Activity in the test with MCF7 [2] was determined as 70%.

With `Cc1cc(=O)oc2c(O)c(O)ccc12`, the result in the test on MCF7 [1] and with MCF7 [3] was Active.

As to `Cc1c(Cl)c(=O)oc2c(O)c(O)ccc12`, the outcome in the test with MCF7 [1] was Active.
